Target: purified human Hsp90
Assay: Binding Assay: fluorescence polarization with BODIPY-labeled geldanamycin
Conditions: BODIPY-GM 10 nM, Hsp90 30 nM
Summary of the method: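 Fluorescence polarization competition with BODIPY-geldanamycin (10 nM final) and human Hsp90 (30 nM final) in HEPES-KOH pH 7.3 buffer with molybdate, NP-40, DTT; 2% DMSO, overnight at room temperature. Read 485/530 nm; percent inhibition from mP normalized to DMSO controls, fluorescent-compound points excluded.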

| SMILES | IC50 [µM] | % Inhibition at 5 μM Compound Concentration [%] |
| --- | --- | --- |
| Nc1ncnc2c1nc(Sc1cc3c(cc1Br)OCO3)n2CCC(N)C1CCSCC1 (centres unmarked) [Example 689, 9-[3-Amino-3-(tetrahydro-2H-thiopyran-4-yl)propyl]-8-[(6-bromo-1,3-benzodioxol-5-yl)thio]-9H-purin-6-amine] | 0.12 | – |
| Nc1ncnc2c1nc(Sc1cc3c(cc1Br)OCO3)n2CCC(N)C1CCCCC1 (centres unmarked) [Example 690, 9-(3-Amino-3-cyclohexylpropyl)-8-[(6-bromo-1,3-benzodioxol-5-yl)thio]-9H-purin-6-amine] | 0.29 | – |
| Nc1ncnc2c1nc(Sc1cc3c(cc1Br)OCO3)n2CCC(N)C1CCCC1 (centres unmarked) [Example 691, 9-(3-Amino-3-cyclopentyl-propyl)-8-(6-bromo-benzo[1,3]dioxol-5-ylsulfanyl)-9H-purin-6-ylamine] | 0.125 | – |
| Nc1ncnc2c1nc(Sc1cc3c(cc1Br)OCO3)n2CCC(N)C1CCOCC1 (centres unmarked) [Example 692, 9-[3-Amino-3-(tetrahydro-pyran-4-yl)-propyl]-8-(6-bromo-benzo[1,3]dioxol-5-ylsulfanyl)-9H-purin-6-ylamine] | 2 | – |
| C[C@H](NC(=O)OC(C)(C)C)C(=O)N1CCC(CCn2c(Sc3cc4c(cc3Br)OCO4)nc3c(N)ncnc32)CC1 [Example 693, [(S)-2-(4-{2-[6-Amino-8-(6-bromo-benzo[1,3]dioxol-5-ylsulfanyl) -purin-9-yl]-ethyl}-piperidin-1-yl)-1-methyl-2-oxo-ethyl]-carbamic acid tert-butyl ester] | 0.059 | – |
| C[C@@H](NC(=O)OC(C)(C)C)C(=O)N1CCC(CCn2c(Sc3cc4c(cc3Br)OCO4)nc3c(N)ncnc32)CC1 [Example 695, tert-Butyl{(1R)-2-[4-(2-{6-amino-8-[(6-bromo-1,3-benzodioxol-5-yl)thio]-9H-purin-9-yl}ethyl)piperidin-l-yl]-1-methyl-2-oxoethyl}carbamate] | 0.41 | – |
| CC(C)[C@H](NC(=O)OC(C)(C)C)C(=O)N1CCCC(CCn2c(Sc3cc4c(cc3Br)OCO4)nc3c(N)ncnc32)C1 (stereo partly drawn) [Example 697, tert-Butyl((1S)-1-{[3-(2-{6-amino-8-[(6-bromo-1,3-benzodioxol-5-yl)thio]-9H-purin-9-yl}ethyl)piperidin-1-yl]carbonyl}-2-methylpropyl)-carbamate] | 0.6 | – |
| CC(C)[C@H](NC(=O)OC(C)(C)C)C(=O)N1CCCC(CCn2cnc(N)c3nc(Sc4cc5c(cc4Br)OCO5)nc2-3)C1 (stereo partly drawn) [Example 698, tert-Butyl((1S)-1-{[3-(2-{6-amino-8-[(6-bromo-1,3-benzodioxol-5-yl)thio]-3H-purin-3-yl}ethyl)piperidin-1-yl]carbonyl}-2-methylpropyl)carbamate] | – | 55 |
| CC(C)C[C@H](NC(=O)OC(C)(C)C)C(=O)N1CCC(CCn2c(Sc3cc4c(cc3Br)OCO4)nc3c(N)ncnc32)CC1 [Example 699, tert-Butyl((1S)-1-{[4-(2-{6-amino-8-[(6-bromo-1,3-benzodioxol-5-yl)thio]-9H-purin-9-yl}ethyl)piperidin-1-yl]carbonyl}-3-methylbutyl)carbamate] | 0.6 | – |
| C[C@@H](NC(=O)OC(C)(C)C)C(=O)N1CCCC(CCn2c(Sc3cc4c(cc3Br)OCO4)nc3c(N)ncnc32)C1 (stereo partly drawn) [Example 701, tert-Butyl{(1R)-2-[3-(2-{6-amino-8-[(6-bromo-1,3-benzodioxol-5-yl)thio]-9H-purin-9-yl}ethyl)piperidin-1-yl]-1-methyl-2-oxoethyl}carbamate] | 0.2 | – |
| C[C@H](NC(=O)OC(C)(C)C)C(=O)N1CCCC(CCn2c(Sc3cc4c(cc3Br)OCO4)nc3c(N)ncnc32)C1 (stereo partly drawn) [Example 703, tert-Butyl{(1S)-2-[3-(2-{6-amino-8-[(6-bromo-1,3-benzodioxol-5-yl)thio]-9H-purin-9-yl}ethyl)piperidin-1-yl]-1-methyl-2-oxoethyl}carbamate] | 0.19 | – |
| CC(C)(C)OC(=O)NCC(=O)N1CCC(CCn2c(Sc3cc4c(cc3Br)OCO4)nc3c(N)ncnc32)CC1 [Example 705, tert-Butyl{2-[4-(2-{6-amino-8-[(6-bromo-1,3-benzodioxol-5-yl)thio]-9H-purin-9-yl}ethyl)piperidin-1-yl]-2-oxoethyl}carbamate] | 0.08 | – |
| CN(C)CC(=O)N1CCC(CCn2c(Sc3cc4c(cc3Br)OCO4)nc3c(N)ncnc32)CC1 [Example 707, 8-[(6-Bromo-1,3-benzodioxol-5-yl)thio]-9-(2-{1-[(dimethylamino)acetyl]piperidin-4-yl}ethyl)-9H-purin-6-amine] | 0.07 | – |
| CC(C)(C)OC(=O)NC1(C(=O)N2CCC(CCn3c(Sc4cc5c(cc4Br)OCO5)nc4c(N)ncnc43)CC2)CC1 [Example 709, tert-Butyl(1-{[4-(2-{6-amino-8-[(6-bromo-1,3-benzodioxol-5-yl)thio]-9H-purin-9-yl}ethyl)piperidin-1-yl]carbonyl}cyclopropyl)carbamate] | 0.23 | – |
| CC(C)(C)OC(=O)NC(C)(C)C(=O)N1CCC(CCn2c(Sc3cc4c(cc3Br)OCO4)nc3c(N)ncnc32)CC1 [Example 711] | 0.6 | – |
| CC(C)[C@H](NC(=O)OC(C)(C)C)C(=O)N1CCC(CCn2c(Sc3cc4c(cc3Br)OCO4)nc3c(N)ncnc32)CC1 [Example 713, tert-Butyl((1S)-1-{[4-(2-{6-amino-8-[(6-bromo-1,3-benzodioxol-5-yl)thio]-9H-purin-9-yl}ethyl)piperidin-1-yl]carbonyl}-2-methylpropyl)carbamate] | 0.495 | – |
| C[C@@H](C(=O)N1CCC(CCn2c(Sc3cc4c(cc3Br)OCO4)nc3c(N)ncnc32)CC1)N(C)C(=O)OC(C)(C)C [Example 715, tert-Butyl{(1S)-2-[4-(2-{6-amino-8-[(6-bromo-1,3-benzodioxol-5-yl)thio]-9H-purin-9-yl}ethyl)piperidin-1-yl]-1-methyl-2-oxoethyl}methylcarbamate] | > 2 | – |
| C[C@H](C(=O)N1CCC(CCn2c(Sc3cc4c(cc3Br)OCO4)nc3c(N)ncnc32)CC1)N(C)C(=O)OC(C)(C)C [Example 717, tert-Butyl{(1R)-2-[4-(2-{6-amino-8-[(6-bromo-1,3-benzodioxol-5-yl)thio]-9H-purin-9-yl}ethyl)piperidin-1-yl]-1-methyl-2-oxoethyl}methylcarbamate] | 0.2 | – |
| CC(C)C[C@H](NC(=O)OC(C)(C)C)C(=O)N1CCCC(CCn2c(Sc3cc4c(cc3Br)OCO4)nc3c(N)ncnc32)C1 (stereo partly drawn) [Example 719, tert-Butyl((1S)-1-{[3-(2-{6-amino-8-[(6-bromo-1,3-benzodioxol-5-yl)thio]-9H-purin-9-yl}ethyl)piperidin-1-yl]carbonyl}-3-methylbutyl)carbamate] | 0.8 | – |

Results, then the molecule that gave them:

| IC50 [µM] | % Inhibition at 5 μM Compound Concentration [%] | SMILES |
| --- | --- | --- |
| 0.13 | – | COCC(=O)N1CCC(CCn2c(Sc3cc4c(cc3Br)OCO4)nc3c(N)ncnc32)CC1 [Example 722, 8-[(6-Bromo-1,3-benzodioxol-5-yl)thio]-9-{2-[1-(methoxyacetyl)piperidin-4-yl]ethyl}-9H-purin-6-amine] |
| 0.105 | – | CO[C@@H](C)C(=O)N1CCC(CCn2c(Sc3cc4c(cc3Br)OCO4)nc3c(N)ncnc32)CC1 [Example 724, 8-[(6-Bromo-1,3-benzodioxol-5-yl)thio]-9-(2-{1-[(2S)-2-methoxypropanoyl]piperidin-4-yl}ethyl)-9H-purin-6-amine] |
| 0.1 | – | CO[C@H](C)C(=O)N1CCC(CCn2c(Sc3cc4c(cc3Br)OCO4)nc3c(N)ncnc32)CC1 [Example 725, 8-[(6-Bromo-1,3-benzodioxol-5-yl)thio]-9-(2-{1-[(2R)-2-methoxypropanoyl]piperidin-4-yl}ethyl)-9H-purin-6-amine] |
| – | 26 | CO[C@H](C)C(=O)N1CCC(CCn2cnc(N)c3nc(Sc4cc5c(cc4Br)OCO5)nc2-3)CC1 [Example 726, 8-[(6-Bromo-1,3-benzodioxol-5-yl)thio]-3-(2-{1-[(2R)-2-methoxypropanoyl]piperidin-4-yl}ethyl)-3 H-purin-6-amine] |
| 32 | – | CO[C@@H](C)C(=O)N1CCC(CCn2cnc(N)c3nc(Sc4cc5c(cc4Br)OCO5)nc2-3)CC1 [Example 727, 8-[(6-Bromo-1,3-benzodioxol-5-yl)thio]-3-(2-{1-[(2S)-2-methoxypropanoyl]piperidin-4-yl}ethyl)-3 H-purin-6-amine] |
| 0.2 | – | CC(C)(C)OC(=O)N1CC[C@H]1C(=O)N1CCC(CCn2c(Sc3cc4c(cc3Br)OCO4)nc3c(N)ncnc32)CC1 [Example 728, tert-Butyl(2S)-2-{[4-(2-{6-amino-8-[(6-bromo-1,3-benzodioxol-5-yl)thio]-9H-purin-9-yl}ethyl)piperidin-1-yl]carbonyl}azetidine-1-carboxylate] |
| > 5 | – | CC(C)(C)OC(=O)N1CCC[C@H]1C(=O)N1CCC(CCn2c(Sc3cc4c(cc3Br)OCO4)nc3c(N)ncnc32)CC1 [Example 730, tert-Butyl(2S)-2-{[4-(2-{6-amino-8-[(6-bromo-1,3-benzodioxol-5-yl)thio]-9H-purin-9-yl}ethyl)piperidin-1-yl]carbonyl}pyrrolidine-1-carboxylate] |
| – | 1.0 | CC(C)(C)OC(=O)N1CCC[C@H]1C(=O)N1CCC(CCn2cnc(N)c3nc(Sc4cc5c(cc4Br)OCO5)nc2-3)CC1 [Example 731, tert-Butyl(2S)-2-{[4-(2-{6-amino-8-[(6-bromo-1,3-benzodioxol-5-yl)thio]-3H-purin-3-yl}ethyl)piperidin-1-yl]carbonyl}pyrrolidine-1-carboxylate] |
| > 5 | – | CC(C)(C)OC(=O)N1CCCC[C@H]1C(=O)N1CCC(CCn2c(Sc3cc4c(cc3Br)OCO4)nc3c(N)ncnc32)CC1 [Example 732, tert-Butyl(2S)-2-{[4-(2-{6-amino-8-[(6-bromo-1,3-benzodioxol-5-yl)thio]-9H-purin-9-yl}ethyl)piperidin-1-yl]carbonyl}piperidine-1-carboxylate] |
| > 2 | – | C[C@@H](NC(=O)OC(C)(C)C)C(=O)N1CCC[C@@H](CCn2c(Sc3cc4c(cc3Br)OCO4)nc3c(N)ncnc32)C1 [Example 734, tert-Butyl{(1R)-2-[(3S)-3-(2-{6-amino-8-[(6-bromo-1,3-benzodioxol-5-yl)thio]-9H-purin-9-yl}ethyl)piperidin-1-yl]-1-methyl-2-oxoethyl}carbamate] |

— patent US7595401B2, “Therapeutic compounds and their use in cancer” (Myriad Pharmaceuticals, Inc., priority 2006, dated 2009)
